Measurements: patent US12091425B2 (AMGEN INC., priority 2016, dated 2024)
Like-named read-outs stand apart in the source and are kept apart here. Blank lines part the entries; values can stand above or below the compound they belong to.

Key:
[1] = biological target: T1, Mcl-1/Bim interaction, recombinant human Mcl-1 (171-327) (Homo sapiens, UniProt Q07820); experiment: Cell free Mcl-1: Bim Affinity Assay (Mcl-1 HTRF); format: binding; conditions: TR-FRET, 0.1 nM Mcl-1 (171-327), 0.05 nM biotin-Bim (51-76)
T1 construct: made in house
T1 sequence (Q07820 171-327): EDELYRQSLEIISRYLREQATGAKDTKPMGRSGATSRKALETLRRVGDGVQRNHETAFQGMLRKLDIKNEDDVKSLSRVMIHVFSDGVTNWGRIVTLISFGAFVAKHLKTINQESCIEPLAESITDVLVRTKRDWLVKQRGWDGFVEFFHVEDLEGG
Procedure, shortened: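 Biotin-Bim(51-76) peptide, TR-FRET readout, overnight incubation; IC50 from duplicate competition curves, 4-parameter fit.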

[2] = tested on: OPM-2 human multiple myeloma cell line; experiment: Cell Viability Assay (OPM-2 10 FBS); format: cell-based; conditions: Homo sapiens, OPM-2, 16 h, OPM-2 cells, 16 h, CellTiter-Glo
Procedure, shortened: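 Plated at 3000 cells/well in 10% FBS complete medium, the cells received a serial compound dilution series and incubated 16 h at 37 °C with 5% CO2. CellTiter-Glo was then added; IC50 values were fitted with a logistic 4-parameter model.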

[3] = from C=CC[C@H](C)NS(=O)(=O)NC(=O)c1ccc2c(c1)N(C[C@@H]1CC[C@H]1[C@@H](O)C=C)C[C@@]1(CCCc3cc(Cl)ccc31)CO2, rcm bond, 16-membered ring, Hoveyda-Grubbs II, AcOH

IC50 [1]: 0.241 nM
IC50 [2]: 278 nM
Compound: C[C@H]1C/C=C/[C@H](O)[C@@H]2CC[C@H]2CN2C[C@@]3(CCCc4cc(Cl)ccc43)COc3ccc(cc32)C(=O)NS(=O)(=O)N1 [Example 61, (1S,3′R,6′R,7′S,8′E,11′S)-6-chloro-7′-hydroxy-11′-methyl-3,4-dihydro-2H,15′H-spiro[naphthalene-1,22′-[20]oxa[13]thia[1,12,14]triazatetracyclo[14.7.2.0^3,6.0^19,24]pentacosa[8,16,18,24]tetraen]-15′-one 13,13′-dioxide]
ring closure, yield after HPLC [3]: 50.1%

Compound: C=CCCC(C#N)S(=O)(=O)NC(=O)c1ccc2c(c1)N(C[C@@H]1CC[C@H]1[C@@H](O)/C=C/CCC)C[C@@]1(CCCc3cc(Cl)ccc31)CO2 (single isomer, unassigned)
ring closure, yield after HPLC (the molecule shown is the open-chain precursor, rcm bond, 16-membered ring, Hoveyda-Grubbs II (20 mol%), reduced pressure, AcOH, 2.9 mM, […]): 2.58%

IC50 [1]: 0.66 nM
IC50 [2]: 1280 nM
Compound: CCN1CC/C=C/[C@H](O)[C@@H]2CC[C@H]2CN2C[C@@]3(CCCc4cc(Cl)ccc43)COc3ccc(cc32)C(=O)NS1(=O)=O (single isomer, unassigned) [Example 29]
ring closure, yield after HPLC (from C=CCCN(CC)S(=O)(=O)NC(=O)c1ccc2c(c1)N(C[C@@H]1CC[C@H]1[C@@H](O)/C=C/CCC)C[C@@]1(CCCc3cc(Cl)ccc31)CO2, rcm bond, 16-membered ring, Hoveyda-Grubbs II, AcOH, 2.9 mM): 22.2%

IC50 [1]: 0.266 nM
IC50 [2]: 362 nM
Compound: C[C@H]1C/C=C\[C@H](O)[C@@H]2CC[C@H]2CN2C[C@@]3(CCCc4cc(Cl)ccc43)COc3ccc(cc32)C(=O)NS(=O)(=O)N1 (single isomer, unassigned) [Example 62]
ring closure, yield after HPLC [3]: 2.1%

Compound: N#CC[C@@H]1CC/C=C/[C@H](O)[C@@H]2CC[C@H]2CN2C[C@@]3(CCCc4cc(Cl)ccc43)COc3ccc(cc32)C(=O)NS1(=O)=O
ring closure, yield after HPLC (from C=CC/C=C/[C@H](O)[C@@H]1CC[C@H]1CN1C[C@@]2(CCCc3cc(Cl)ccc32)COc2ccc(C(=O)NS(=O)(=O)[C@@H](CC#N)CCC=C)cc21, rcm bond, 16-membered ring, Hoveyda-Grubbs II (20 mol%), reduced pressure, AcOH, 2.89 mM, […]): 3.43%

Compound: (1S,3′R,6′R,7′S,8′E)-6-chloro-7′-hydroxy-9′-bromo-3,4-dihydro-2H,15′H-spiro[naphthalene-1,22′-[20]oxa[13]thia[1,14]diazatetracyclo[14.7.2.0^3,6.0^19,24]pentacosa[8,16,18,24]tetraen]-15′-one 13′,13′-dioxide or (1S,3′R,6′R,7′R,8′E)-6-chloro-7′-hydroxy-9′-bromo-3,4-dihydro-2H,15′H-spiro[naphthalene-1,22′-[20]oxa[13]thia[1,14]diazatetracyclo[14.7.2.0^3,6.0^19,24]pentacosa[8,16,18,24]tetraen]-15′-one 13′,13′-dioxide
ring closure, yield after HPLC (amide bond, 16-membered ring, EDC/DMAP/TEA, DCM, 5.0 mM, […]): 13%

Compound: C[C@@H]1CC=C[C@H](O)[C@]2(C)CC[C@H]2CN2C[C@@]3(CCCc4cc(Cl)ccc43)COc3ccc(cc32)C(=O)NS1(=O)=O
ring closure, yield after HPLC (from C[C@H](C/C=C/[C@H](O)[C@]1(C)CC[C@H]1CN1C[C@@]2(CCCc3cc(Cl)ccc32)COc2ccc(C(=O)O)cc21)S(N)(=O)=O, amide bond, 15-membered ring, EDC/DMAP, DCM, 2.0 mM, 16.0 h): 7.1%

Compound: (1S,3′R,6′R,7′S,8′E,11′S,12′R)-6-chloro-7′-hydroxy-12′-(2-methoxyethyl)-11′-methyl-3,4-dihydro-2H,15′H-spiro[naphthalene-1,22′-[20]oxa[13]thia[1,14]diazatetracyclo[14.7.2.0^3,6.0^19,24]pentacosa [8,16,18,24]tetraen]-15′-one 13′,13′-dioxide or [...] or (1S,3′R,6′R,7′S,8′E,11′R,12′R)-6-chloro-7′-hydroxy-12′-(2-methoxyethyl)-11′-methyl-3,4-dihydro-2H,15′H-spiro[naphthalene-1,22′-[20]oxa[13]thia[1,14]diazatetracyclo[14.7.2.0^3,6.0^19,24]pentacosa[8,16,18,24]tetraen]-15′-one 13′,13′-dioxide
ring closure, yield after HPLC (rcm bond, 16-membered ring, Hoveyda-Grubbs II, 1,2-dichloroethane, 3.67 mM, 50.0 °C): 8.2%
